Assay results taken from article PMC8474116, “Discovery of Novel Acetamide-Based Heme Oxygenase-1 Inhibitors with Potent In Vitro Antiproliferative Activity” (Journal of Medicinal Chemistry, 2021).

Assays:
[1] = target: T1, HO-1 (Rattus norvegicus, UniProt P06762); assay: HO-1 enzymatic activity, rat spleen microsomal fraction (bilirubin formation); assay type: biochemical; conditions: for IC50 / HO-1 inhibitory activity (in words): rat spleen microsomal fraction; for IC50: mean of triplicate ± SD; for SI (HO-2/HO-1): ratio of HO-2 and HO-1 IC50
T1 construct: selected to use the most native (i.e., closest to in vivo) forms of HO-1 and HO-2; from tissue; host or cells: rat spleen (male Sprague-Dawley), microsomal fraction
T1 sequence (P06762 1-289): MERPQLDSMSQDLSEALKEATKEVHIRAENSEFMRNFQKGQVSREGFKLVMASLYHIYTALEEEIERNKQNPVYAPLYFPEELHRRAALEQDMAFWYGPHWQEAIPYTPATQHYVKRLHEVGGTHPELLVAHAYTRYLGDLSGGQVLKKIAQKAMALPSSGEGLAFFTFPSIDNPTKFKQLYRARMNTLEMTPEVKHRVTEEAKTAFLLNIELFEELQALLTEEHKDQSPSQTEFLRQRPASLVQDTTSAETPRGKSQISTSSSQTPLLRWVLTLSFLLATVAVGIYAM
Method: (§1) HO-1 and HO-2 were obtained, respectively, from the rat spleen and brain as the microsomal fraction prepared by differential centrifugation; the dominance of HO-1 protein in the rat spleen and HO-2 in the rat brain has been well documented.[24] These particular microsomal preparations were selected to use the most native (i.e., closest to in vivo) forms of HO-1 and HO-2. Spleen and brain (Sprague-Dawley rats) microsomal fractions were prepared according to the procedure outlined by Ryter et al.[2] The experiments reported in the present paper complied with the current Italian law and met the guidelines of the Institutional Animal Care and Use Committee of the Ministry of Health (Directorate General for Animal Health and Veterinary Medicines, Italy) “Dosing of enzymatic activities in rat microsomes” (2018–2022), project code 02769.N.VLY. The experiments were performed in male Sprague-Dawley albino rats (150 g body weight and age 45 d). They had free access to water and were kept at room temperature with a natural photoperiod (12 h light–12 h dark cycle). For measuring HO-1 and HO-2 activities, each rat was sacrificed and their spleen and brain were excised and weighed. A homogenate (15%, w/v) of spleens and brains pooled from four rats was prepared in ice-cold HO-homogenizing buffer (50 mM Tris buffer, pH 7.4, containing 0.25 M sucrose) using a Potter–Elvehjem homogenizing system with a Teflon pestle. The microsomal fraction of rat spleen and brain homogenate was obtained by centrifugation at 10 000g for 20 min at 4 °C, followed by centrifugation of the supernatant at 100 000g for 60 min at 4 °C. The 100 000g pellet (microsomes) was resuspended in 100 mM of potassium phosphate buffer, pH 7.8, containing 2 mM MgCl2 with a Potter–Elvehjem homogenizing system. The rat spleen and brain microsomal fractions were divided into equal aliquots, placed into microcentrifuge tubes, and stored at −80 °C for up to 2 months.
(§2) Liver cytosol has been used as a source of biliverdin reductase. Rat liver was perfused through the hepatic portal vein with cold 0.9% NaCl; then, it was cut and flushed with 2 × 20 mL of ice-cold PBS to remove all of the blood. Liver tissue was homogenized in 3 volumes of a solution containing 1.15% KCl w/v and Tris buffer 20 mM, pH 7.8 on ice. Homogenates were centrifuged at 10 000g for 20 min at 4 °C. The supernatant was decanted and centrifuged at 100 000g for 1 h at 4 °C to sediment the microsomes. The 100 000g supernatant was saved and then stored in small amounts at −80 °C after its protein concentration was measured.
(§3) The HO-1 and HO-2 activities were determined by measuring the bilirubin formation using the difference in absorbance at 464–530 nm, as described by Ryter et al.[2] Reaction mixtures (500 μL) consisted of 20 mM of Tris–HCl, pH 7.4, (1 mg/mL) microsomal extract, 0.5–2 mg/mL of biliverdin reductase, 1 mM of NADPH, 2 mM of glucose 6-phosphate (G6P), 1 U of G6P dehydrogenase, 25 μM of hemin, and 10 μL of DMSO (or the same volume of DMSO solution of test compounds to a final concentration of 100, 10, and 1 μM). Incubations were carried out for 60 min at 37 °C in a circulating water bath in the dark. Reactions were stopped by adding the same volume of chloroform. After recovering the chloroform phase, the amount of bilirubin formed was measured with a double-beam spectrophotometer as OD464–530 nm (extinction coefficient, 40 mM/cm^–1 for bilirubin). One unit of the enzyme was defined as the amount of enzyme catalyzing the formation of 1 nmol of bilirubin/mg protein/h.

[2] = target: T2, HO-2 (Rattus norvegicus, UniProt P23711); assay: HO-2 enzymatic activity, rat brain microsomal fraction (bilirubin formation); assay type: biochemical; conditions: mean of triplicate ± SD
T2 construct: selected to use the most native (i.e., closest to in vivo) forms of HO-1 and HO-2; from tissue; host or cells: rat brain (male Sprague-Dawley), microsomal fraction
T2 sequence (P23711 1-315): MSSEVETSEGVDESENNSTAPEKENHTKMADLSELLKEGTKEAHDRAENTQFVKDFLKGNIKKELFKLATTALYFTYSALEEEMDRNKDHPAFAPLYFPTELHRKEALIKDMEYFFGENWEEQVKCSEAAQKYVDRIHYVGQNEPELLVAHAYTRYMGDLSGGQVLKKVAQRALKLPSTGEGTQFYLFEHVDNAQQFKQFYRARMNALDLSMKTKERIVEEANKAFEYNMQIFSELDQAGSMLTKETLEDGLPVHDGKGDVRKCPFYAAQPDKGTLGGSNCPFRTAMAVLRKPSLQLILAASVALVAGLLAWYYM
Method: as §1, §2, §3

[3] = tested on: U87MG cells; assay: MTT cell viability assay, U87MG; assay type: cell-based, human; conditions: 48 h, at both concentrations 1 and 10 μM
Method: (§4) Experiments were performed on human GBM cell lines U87MG (ATCCC number #HTB-14) and A172 (ATCCC #CRL-1620) on DU145 (ATCC HTB-81) and human lung adenocarcinoma A549 (ATCC CCL-185-LUC2). All cell lines were obtained from the American Type Culture Collection (ATCC, Rockville, MD). Cells were grown in Dulbecco’s modified Eagle’s medium (DMEM) supplemented with 10% of heat-inactivated fetal bovine serum (FBS), 100 U/mL of penicillin, and 100 μg/mL of streptomycin (Sigma-Aldrich, Steinheim, Germany). Cells were incubated at 37 °C in a humidified atmosphere with 5% CO2.
(§5) The effect of selected compounds 7i and 7l–p on cell viability was assessed by performing an MTT assay. Cells were seeded into 96-well plates at a density of 7 × 10^3 cells/well in 100 μL of culture medium. After 24 h, cells were treated with selected compounds at three different concentrations (1 μM, 10 μM, and 50 μM) for 48 h. Following treatments, 0.5 mg/mL of 3-[4,5-dimethylthiazol-2-yl]-2,5-diphenyltetrazolium bromide (MTT) (Sigma-Aldrich) was added to each well and incubated for 4 h at 37 °C. Finally, dimethyl-sulfoxide (DMSO) was used to dissolve formazan salts, and absorbance was measured at 570 nm in a microplate reader (Biotek Synergy-HT). Eight replicate wells were used for each group.

[4] = tested on: A172 cells; assay: MTT cell viability assay, A172; assay type: cell-based, human; conditions: 48 h
Method: as §4, §5

[5] = tested on: HO-1; assay: HO-1 protein expression by Western blot, A172; assay type: cell-based, human; conditions: A172, 10 μM, 48 h
Method: Proteins were extracted from total cell lysate, as previously described.[61] Briefly, cell lines were added to a buffer containing 20 mM Tris (pH 7.4), 2 mM EDTA, 0.5 mM EGTA, 50 mM mercaptoethanol, and […] sucrose supplemented with phosphatase and protease inhibitor cocktails (Roche Diagnostics, Monza, Italy). Subsequently, protein samples were sonicated twice for 20′ by using an ultrasonic probe, followed by centrifugation at 10 000g for 10 min at 4 °C. Sample proteins (30 μg) were diluted in 4X NuPage LDS sample buffer (Invitrogen, NP0007), heated at 80 °C for 5 min, and then separated on a Biorad Criterion XT 4–15% Bis–Tris gel (BIO-RAD) by electrophoresis and then transferred to a PVDF membrane (BIO-RAD). Blots were blocked using the Odyssey Blocking Buffer (LI-COR Biosciences) and probed with appropriate antibodies: HO-1 antibody (GeneTex GTX101147), goat polyclonal anti-VEGF (cat. no. sc-1836, Santa Cruz Biotechnology), and rabbit polyclonal anti-β-tubulin (cat n.sc-9104, Santa Cruz Biotechnology) and β-actin antibody (GeneTex GTX109639).
The secondary antibodies goat antirabbit (Odyssey, #926-32211; Odyssey #926-68021) and donkey antigoat IRDye 800CW (cat #926-32214; Li-Cor Biosciences) were used at 1:7000. Blots were scanned, and densitometric analysis was performed with the Odyssey Infrared Imaging System. Values were normalized to β-actin and to β-tubulin.

[6] = tested on: A549 cells; assay: MTT cell viability assay, A549; assay type: cell-based, human; conditions: 48 h, 10 μM
Method: as §4, §5

[7] = tested on: DU145 cells; assay: MTT cell viability assay, DU145; assay type: cell-based; conditions: 48 h, 1 μM and 10 μM
Method: as §4, §5

| IC50 [1] [µM] | melting point [°C] | SMILES | also measured |
| --- | --- | --- | --- |
| 96.1 ± 1.44 | – | CN(C(=O)Cn1ccnc1)c1ccc(I)cc1 [7e, 2-(1H-Imidazol-1-yl)-N-(4-iodophenyl)-N-methylacetamide] | – |
| 50.6 ± 1.84 | 106 to 111 | CN(Cc1ccccc1)C(=O)Cn1ccnc1 [7g, N-Benzyl-2-(1H-imidazol-1-yl)-N-methylacetamide] | – |
| 224 ± 8.1 | – | CC(=O)N(CCCn1ccnc1)Cc1ccccc1 [11a, N-(3-(1H-Imidazol-1-yl)propyl)-N-benzylacetamide] | HO-1 inhibitory activity (in words) [1]: almost inactive |
| 0.9 ± 0.03 | 82 to 83 | CN(C(=O)Cn1ccnc1)C(c1ccccc1)c1cccc(Br)c1 (stereo not drawn) [7m, N-((3-Bromophenyl)(phenyl)methyl)-2-(1H-imidazol-1-yl)-N-methylacetamide] | HO-1 vs HO-2 selectivity (in words) [1]: superimposable HO-1 and HO-2 IC50 values; SI (HO-2/HO-1) [1]: 1.2; IC50 [2]: 1.1 ± 0.04 µM; cell viability reduction [3]: more than 30%; cell viability reduction (in words) ([4]; all tested concentrations (1, 10, 50 μM)): weak activity; HO-1 protein expression (in words) [5]: enhanced its levels |
| 64.8 ± 1.56 | 99 to 102 | O=C(Cn1ccnc1)N(Cc1ccccc1)Cc1ccccc1 [7h, N,N-Dibenzyl-2-(1H-imidazol-1-yl)acetamide] | – |
| 31 ± 1.74 | – | O=C(c1ccccc1)N(CCCn1ccnc1)Cc1ccccc1 [11b, N-(3-(1H-Imidazol-1-yl)propyl)-N-benzylbenzamide] | HO-1 inhibitory activity (in words) [1]: comparable to the hit compound 4 |
| 35.7 ± 1.2 | 158 to 162 | O=C(Cn1ccnc1)Nc1cccc(Br)c1 [7c, N-(3-Bromophenyl)-2-(1H-imidazol-1-yl)acetamide] | – |
| 11.4 ± 0.97 | 134 to 136 | CN(C(=O)Cn1ccnc1)C(c1ccccc1)C1CCCC1 (stereo not drawn) [7j, N-(Cyclopentyl(phenyl)methyl)-2-(1H-imidazol-1-yl)-N-methylacetamide] | fold less potent than compound 7i (HO-1) [1]: 13 fold |
| – | 117 to 119 | CN(C(=O)Cn1ccnc1)c1ccccc1 [7b, 2-(1H-Imidazol-1-yl)-N-methyl-N-phenylacetamide] | – |
| 8.34 ± 0.21 | 222 to 225 | O=C(Cn1ccnc1)Nc1ccc(I)cc1 [7d, 2-(1H-Imidazol-1-yl)-N-(4-iodophenyl)acetamide] | – |
| 32 ± 1.48 | – | O=C(Cc1ccccc1)N(CCCn1ccnc1)Cc1ccccc1 [11c, N-(3-(1H-Imidazol-1-yl)propyl)-N-benzyl-2-phenylacetamide] | HO-1 inhibitory activity (in words) [1]: comparable to the hit compound 4 |
| 110 ± 3.1 | – | O=C(Cn1ccnc1)Nc1ccccc1 [7a] | – |
| 57.6 ± 2.38 | – | O=C(Cn1ccnc1)NCc1ccccc1 [7f] | fold decrease in potency with respect to 4 (HO-1) [1]: 2 fold |
| 26.8 ± 1.61 | 130 to 133 | CN(C(=O)Cn1ccnc1)C(c1ccccc1)C1CCCCC1 (stereo not drawn) [7k, N-(Cyclohexyl(phenyl)methyl)-2-(1H-imidazol-1-yl)-N-methylacetamide] | fold less potent than compound 7i (HO-1) [1]: 30 fold |
| 8 ± 0.39 | 120 to 121 | CN(C(=O)Cn1ccnc1)C(c1ccccc1)c1ccc(OCc2ccc(Br)cc2)cc1 (stereo not drawn) [7p, N-((4-((4-Bromobenzyl)oxy)phenyl)(phenyl)methyl)-2-(1H-imidazol-1-yl)-N-methylacetamide] | fold less potent than 7o (HO-1) [1]: about 6.5 fold; fold less potent than compound 7i (HO-1) [1]: ~9 fold; fold more selective for the inducible isoform (HO-1 over HO-2) [1]: 3 fold; SI (HO-2/HO-1) [1]: 3.1; IC50 [2]: 24.71 ± 0.14 µM; cell viability reduction [3]: around 20%; cell viability reduction (in words) ([4]; 10 μM): milder activity; cell viability reduction (in words) ([4]; 50 μM): only at 50 μM; cell viability reduction (in words) [6]: weak effect; cell viability reduction (in words) [7]: had efficacies |
